The target in test [1] is [^3 H]-Spiroperidol binding (receptor). The test is described as follows: Inhibition of [3H]-spiroperidol binding (receptor assay, Grigoriadis and Seeman). On the procedure:
(§1) The compounds of Formula I are valuable dopaminergic agents. […] Thus, the compounds of Formula I were tested for their ability to inhibit locomotor activity in mice according to the assay described by J. R. McLean, et al, Pharmacoloqy, Biochemistry and Behavior, Volume 8, pages 97-99 (1978); for their ability to inhibit [^3 H]-spiroperidol binding in a receptor assay described by D. Grigoriadis and P. Seeman, Journal of Neurochemistry, Volume 44, Pages 1925-1935 (1985); and for their ability to inhibit dopamine synthesis in rats according to the protocol described by J. R. Walters and R. H. Roth, Naunyn-Schmiedeberg's Archives of Pharmacology, Volume 296, pages 5-14 (1976). The above test methods are incorporated herein by reference. The data in the table show the dopaminergic activity of representative compounds of Formula I. Additionally, compounds of Formula I are ligands for the sigma opiate binding site. The data in the table show the inhibition of [^3 H]DTG ([…], a sigma ligand) binding by representative compounds of Formula I, according to the method of E. Weber, et al. Proceedings of the National Academy of Sciences, USA, Volume 83, Pages 8784-8788 (1986).

In test [2] the test system is mice. The test is described as follows: Inhibition of locomotor activity in mice (McLean et al.). In kind it is in vivo. The settings on record: Mus musculus, read-out: Inhibition of Locomotor Activity in Mice ED50. As for the experimental part: as §1
Test [3] concerns Brain Striatal Dopamine Synthesis. Description: Inhibition of brain striatal dopamine synthesis in rats (Walters and Roth). The settings on record: Rattus norvegicus, IP, read-out: Effects on Brain Striatal Dopamine Synthesis in Rats, inhibition. In kind it is in vivo. On the procedure: as §1
The target in test [4] is sigma opiate binding site. Description: Inhibition of [3H]DTG (ditoluoylguanidine) binding (Weber et al.). As for the experimental part: as §1

Read-outs that look alike come from different tables or passages of the source.

Usually IC50 stands for the point on the concentration scale where inhibition reaches its midpoint. Read a low IC50 as greater potency. In general, ED50 refers to the dose that gives a 50% effect, or the effect in half of the subjects. In general, inhibition refers to the relative decrease from the control value, in per cent.

For `C1=C(c2cccnc2)CCC(N2CCN(c3ccccn3)CC2)C1` (racemic) [Example 1, (±)-1-(2-Pyridinyl)-4-[4-(3-pyridinyl)-3-cyclohexen-1-yl]piperazine], the IC50 in test [1] worked out at 0.188 µM. The ED50 in test [2] (mice, IP) stood at 0.1 mg/kg. The inhibition at 10 mg/kg in test [3] was found to be 100%.
`C1=C(c2ccccn2)CCC(N2CCN(c3ccccn3)CC2)C1` (racemic) [Example 1a, (±)-1-(2-Pyridinyl)-4-[4-(2-pyridinyl)-3-cyclohexen-1-yl]-piperazine] returned a 50% inhibitory concentration (IC50) in test [1] of 1.18 µM. Also, the ED50 in test [2] (mice, IP) amounted to 0.9 mg/kg. For the same compound, the inhibition at 10 mg/kg in test [3] turned out to be 75%.
Regarding `C1=C(c2ccccn2)CCC(CCN2CCN(c3ccccn3)CC2)C1` (racemic) [Example 1b, (±)-1-(2-Pyridinyl)-4-[2-[4-(2-pyridinyl)-3-cyclohexen-1-yl]ethyl]piperazine], the results for the 50% inhibitory concentration (IC50) in test [1] and in test [4] were 0.128 µM and 0.039 µM, respectively. In addition, the median effective dose (ED50) in test [2] (mice, IP) came to 0.4 mg/kg.
`C1=C(c2cccs2)CCC(N2CCN(c3ccccn3)CC2)C1` (racemic) [Example 2, (±)-1-(2-Pyridinyl)-4-[4-(2-thienyl)-3-cyclohexen-1-yl]-piperazine] came in with a 50% inhibitory concentration (IC50) in test [1] of 0.352 µM. In addition, the 50% effective dose (ED50) in test [2] (mice, IP) is 9.3 mg/kg.
In test [1], `C1=C(c2ccccc2)CCC(N2CCN(c3ccccn3)CC2)C1` (racemic) [Example 2a, (±)-1-(4-Phenyl-3-cyclohexen-1-yl)-4-(2-pyridinyl)piperazine] showed an IC50 of 0.599 µM. In addition, the ED50 in test [2] (mice, IP) turned out to be 1 mg/kg.
The corresponding values for `C1=C(c2cccs2)CCC(CN2CCN(c3ccccn3)CC2)C1` (racemic) [Example 2b, (±)-1-(2-Pyridinyl)-4-[[4-(2-thienyl)-3-cyclohexen-1-yl]methyl]-piperazine] are 2.43 µM and under 30 mg/kg.
Take `C1=C(c2cccs2)CCC(CCN2CCN(c3ccccn3)CC2)C1` (racemic) [Example 2c, (±)-1-(2-Pyridinyl)-4-[2-[4-(2-thienyl)-3-cyclohexen-1-yl]ethyl]-piperazine]: in test [2] (mice, IP), the ED50 worked out at 8.4 mg/kg. The inhibition at 10 mg/kg in test [3] is 46%. In addition, in test [4], the half-inhibitory concentration (IC50) amounted to 0.039 µM.
Consider `C1=C(c2ccccc2)CCC(CCN2CCN(c3ccccn3)CC2)C1` (racemic) [Example 2d, (±)-1-[2-(4-Phenyl-3-cyclohexen-1-yl)ethyl]-4-(2-pyridinyl)piperazine], for which the values for the IC50 in test [1] and in test [4] were 0.409 µM and 0.023 µM, respectively. In test [2] (mice, IP), the median effective dose (ED50) came to 1.9 mg/kg. Moreover, the inhibition at 10 mg/kg in test [3] was 48%.
Consider `Fc1ccc(C2=CCC(CCN3CCN(c4ccccn4)CC3)CC2)cc1` (racemic) [Example 2e, (±)-1-[2-[4-(4-Fluorophenyl)-3-cyclohexen-1-yl]ethyl]-4-(2-pyridinyl)piperazine], for which the concentration for half-maximal inhibition (IC50) in test [1] amounted to 0.365 µM; in test [4], 0.02 µM. In addition, the ED50 in test [2] (mice, IP) was determined as 2.9 mg/kg. In test [3], the inhibition at 10 mg/kg is 23%.
Turning to `C1=C(c2nccs2)CCC(CCN2CCN(c3ccccn3)CC2)C1` (racemic) [Example 2f, (±)-1-(2-Pyridinyl)-4-[2-[4-(2-thiazolyl)-3-cyclohexen1-yl]-ethyl]piperazine], the half-maximal inhibitory concentration (IC50) in test [1] stood at 0.267 µM; in test [4] it was 0.098 µM. The ED50 in test [2] (mice, IP) was 0.8 mg/kg. Besides, the inhibition at 10 mg/kg in test [3] was 77%.
On to `C1=C(c2ccccc2)CCN(CCC2CC=C(c3cccs3)CC2)C1` (racemic) [Example 2g, (±)-1,2,3,6-Tetrahydro-4-phenyl-1-[2-[4-(2-thienyl)-3-cyclohexen-1-yl]ethyl]pyridine], for which the IC50 in test [1] stood at 0.032 µM; in test [4], 0.002 µM. Besides, in test [2] (ip), the median effective dose (ED50) worked out at 3 mg/kg.
For the compound `C1=C(c2ccccc2)CCN(C2CC=C(c3ccccn3)CC2)C1` (racemic) [Example 3, (±)-2-[4-(3,6-Dihydro-4-phenyl-1(2H)-pyridinyl)-1-cyclohexen-1-yl]pyridine], the IC50 in test [1] worked out at 0.296 µM. In addition, the ED50 in test [2] (ip) turned out to be 2 mg/kg.

The values are drawn from patent US4975445A, “Substituted cyclohexenes as central nervous system agents” (priority 1989, dated 1990).
